Reference: patent US5705491A, “Adenosine deaminase inhibitor” (Nippon Zoki Pharmaceutical Co., Ltd., priority 1992, dated 1998)
pKi: −log10 of the molar value.

biological target: T1, adenosine deaminase of type VII (mucous membrane of intestinal tract of calf) (Bos taurus, UniProt P56658); experiment: Adenosine deaminase inhibiting action; assay type: biochemical; settings: 25° C., 0.05M phosphate buffer pH 7.5, adenosine substrate, 5 minutes, Lineweaver-Burk plots
T1 construct: from tissue; host or cells: mucous membrane of intestinal tract of calf
T1 sequence (P56658 1-363): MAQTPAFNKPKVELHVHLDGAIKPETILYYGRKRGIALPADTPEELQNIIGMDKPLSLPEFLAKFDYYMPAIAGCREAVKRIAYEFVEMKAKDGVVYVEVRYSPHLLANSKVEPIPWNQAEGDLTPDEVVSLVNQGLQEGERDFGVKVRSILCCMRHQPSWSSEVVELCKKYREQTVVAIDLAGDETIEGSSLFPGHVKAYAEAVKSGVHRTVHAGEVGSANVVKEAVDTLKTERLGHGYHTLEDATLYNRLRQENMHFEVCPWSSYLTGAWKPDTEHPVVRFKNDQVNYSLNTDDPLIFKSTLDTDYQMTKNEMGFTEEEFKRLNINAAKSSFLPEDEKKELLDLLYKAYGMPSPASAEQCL
Method: 1. Adenosine Deaminase Inhibiting Action
The enzymatic reaction was conducted at 25° C. in a 0.05M phosphate buffer (pH=7.5). Thus, a reaction solution comprising 800 μl of substrate solution (adenosine), 100 μl of a solution to be tested and 100 μl of enzyme solution (adenosine deaminase of type VII; mucous membrane of intestinal tract of calf) was reacted for 5 minutes and the reaction was stopped by adding 100 μl of acetic acid. Then the amount of inosine produced was determined by means of an HPLC to measure the inhibiting activity. The test was conducted for various substrate concentrations and Ki values were measured by Lineweaver-Burk plots.

| SMILES | pKi |
| --- | --- |
| CO[C@@H]1[C@H](O)[C@@H](CO)O[C@H]1n1cnc2c(N)ncnc21 [Compound 1, 2'-O-Methyladenosine] | 4.88 |
| CNc1ncnc2c1ncn2[C@@H]1O[C@H](CO)[C@@H](O)[C@H]1OC [Compound 18, N^6,2'-O-Dimethiladenosine] | 5.91 |
| CCCCO[C@@H]1[C@H](O)[C@@H](CO)O[C@H]1n1cnc2c(NC)ncnc21 [Compound 22, N^6 -Methyl-2'-O-n-butyladenosine] | 7.25 |
| CCCCCCCCCCc1nc(NC)c2ncn([C@@H]3O[C@H](CO)[C@@H](O)[C@H]3OC)c2n1 [Compound 31, N^6,2'-O-Dimethyl-2-decyladenosine] | 6.55 |
| CCCCCCCCCCC#Cc1nc(NC)c2ncn([C@@H]3O[C@H](CO)[C@@H](O)[C@H]3OC)c2n1 [Compound 33, N^6,2'-O-Dimethyl-2-(1-dodecyn-1-yl)-adenosine] | 4.82 |
| CNc1nc(C)nc2c1ncn2[C@@H]1O[C@H](COC)[C@@H](O)[C@H]1O [Compound 34, 2,N^6,5'-O-Trimethyladenosine] | 3.44 |
| CO[C@H]1[C@@H](O)[C@H](n2cnc3c(N)nc(-c4ccccc4)nc32)O[C@@H]1CO [Compound 38, 2-Phenyl-3'-O-methyladenosine] | 5.10 |
| CO[C@@H]1[C@H](O)[C@@H](CO)O[C@H]1n1cnc2c(N)nc(Br)nc21 [Compound 43, 2-Bromo-2'-O-methyladenosine] | 5.49 |
| CO[C@H]1[C@@H](O)[C@H](n2cnc3c(N)nc(Br)nc32)O[C@@H]1CO [Compound 44, 2-Bromo-3'-O-methyladeonsine] | 4.66 |
| CCCCCNc1nc(N)c2ncn([C@@H]3O[C@H](CO)[C@@H](O)[C@H]3OC)c2n1 [Compound 52, 2-Pentylamino-2'-O-methyladenosine] | 6.22 |
| CO[C@H]1[C@@H](O)[C@H](n2cnc3c(N)nc(Nc4ccccc4)nc32)O[C@@H]1CO [Compound 54, 2-Phenylamino-3'-O-methyladenosine] | 5.66 |
| CNc1nc(Nc2ccccc2)nc2c1ncn2[C@@H]1O[C@H](CO)[C@@H](O)[C@H]1OC [Compound 55, 2-Phenylamino-N^6,2'-O-dimethyladenosine] | 7.89 |
| CNc1nc(Nc2ccccc2)nc2c1ncn2[C@@H]1O[C@H](CO)[C@@H](OC)[C@H]1O [Compound 56, 2-Phenylamino-N^6,3'-O-dimethyladenosine] | 6.96 |
| CNc1ncnc2c1ncn2[C@@H]1O[C@H](CO)[C@@H](OC)[C@H]1OC [Compound 60, N^6,2',3'-O-Trimethyladenosine] | 6.12 |
| CCO[C@@H]1[C@H](OCC)[C@@H](CO)O[C@H]1n1cnc2c(NC)ncnc21 [Compound 61, N^6 -Methyl-2',3'-O-diethyladenosine] | 6.82 |
| CO[C@@H]1[C@H](OC)[C@@H](CO)O[C@H]1n1cnc2c(N)nc(C)nc21 [Compound 63, 2,2',3'-O-Trimethyladenosine] | 5.89 |
| CNc1nc(C)nc2c1ncn2[C@@H]1O[C@H](CO)[C@@H](OC)[C@H]1OC [Compound 64, 2,N^6,2',3'-O-Tetramethyladenosine] | 6.06 |

Now from value to molecule:

| pKi | SMILES |
| --- | --- |
| 2.99 | CO[C@@H]1[C@H](O)[C@@H](CO)O[C@H]1n1cnc2c(NC3CCCCC3)ncnc21 [Compound 73, N^6 -Cyclohexyl-2'-O-methyladenosine] |
| 3.31 | CO[C@H]1[C@@H](O)[C@H](n2cnc3c(N)ncnc32)O[C@@H]1CO [Compound 2, 3'-O-Methyladenosine] |
| 3.44 | CNc1ncnc2c1ncn2[C@@H]1O[C@H](COC)[C@@H](O)[C@H]1O [Compound 25, N^6, 5'-O-Dimethyladenosine] |
| 3.57 | CCCCNc1ncnc2c1ncn2[C@@H]1O[C@H](CO)[C@@H](O)[C@H]1OC [Compound 20, N^6-n-Butyl-2'-O-methyladenosine] |
| 3.75 | CO[C@H]1[C@@H](O)[C@H](n2cnc3c(N)nc(C)nc32)O[C@@H]1CO [Compound 6, 2,3'-O-Dimethyl adenosine] |
| 4.11 | CCNc1ncnc2c1ncn2[C@@H]1O[C@H](CO)[C@@H](O)[C@H]1OC [Compound 19, N^6 -Ethyl-2'-O-methyladenosine] |
| 4.52 | CO[C@@H]1[C@H](O)[C@@H](CO)O[C@H]1n1cnc2c(N)nc(C#CCO)nc21 [Compound 57, 2-(3-Hydroxy-1-propyn-1-yl)-2'-O-methyladenosine] |
| 4.55 | CO[C@@H]1[C@H](O)[C@@H](CO)O[C@H]1n1cnc2c(N)nc(N)nc21 [Compound 50, 2-Amino-2'-O-methyladenosine] |
| 4.61 | CO[C@@H]1[C@H](O)[C@@H](CO)O[C@H]1n1cnc2c(N)nc(C)nc21 [Compound 5, 2,2'-O-Dimethyl adenosine] |
| 4.72 | CO[C@@H]1[C@H](O)[C@@H](CO)O[C@H]1n1cnc2c(N)nc(O)nc21 [Compound 39, 2-Hydroxy-2'-O-methyladenosine] |
| 5.12 | CO[C@@H]1[C@H](OC)[C@@H](CO)O[C@H]1n1cnc2c(N)ncnc21 [Compound 59, 2',3'-O-Dimethyladenosine] |
| 5.30 | CO[C@H]1[C@@H](O)[C@H](n2cnc3c(N)nc(N)nc32)O[C@@H]1CO [Compound 51, 2-Amino-3'-O-methyladenosine] |
| 5.36 | CO[C@H]1[C@@H](O)[C@H](n2cnc3c(N)nc(I)nc32)O[C@@H]1CO [Compound 48, 2-Iodo-3'-O-methyladeonsine] |
| 5.43 | CNc1nc(Br)nc2c1ncn2[C@@H]1O[C@H](CO)[C@@H](OC)[C@H]1O [Compound 46, 2-Bromo-N^6,3'-O-dimethyladeonsine] |
| 5.46 | CCCCO[C@@H]1[C@H](O)[C@@H](CO)O[C@H]1n1cnc2c(N)ncnc21 [Compound 4, 2'-O-n-Butyladenosine] |
| 6.05 | CCCCCCO[C@@H]1[C@H](O)[C@@H](CO)O[C@H]1n1cnc2c(NC)ncnc21 [Compound 23, N^6 -Methyl-2'-O-n-hexyladenosine] |
| 6.18 | CO[C@@H]1[C@H](O)[C@@H](CO)O[C@H]1n1cnc2c(N)nc(-c3ccccc3)nc21 [Compound 37, 2-Phenyl-2'-O-methyladenosine] |
| 6.48 | CCO[C@@H]1[C@H](O)[C@@H](CO)O[C@H]1n1cnc2c(NC)ncnc21 [Compound 21, N^6 -Methyl-2'-O-ethyladenosine] |
| 6.64 | CO[C@@H]1[C@H](O)[C@@H](CO)O[C@H]1n1cnc2c(N)nc(I)nc21 [Compound 47, 2-Iodo-2'-O-methyladenosine] |
| 6.77 | CO[C@@H]1[C@H](O)[C@@H](CO)O[C@H]1n1cnc2c(N)nc(Nc3ccccc3)nc21 [Compound 53, 2-Phenylamino-2'-O-methyladenosine] |
| 6.92 | CCCCC#Cc1nc(NC)c2ncn([C@@H]3O[C@H](CO)[C@@H](O)[C@H]3OC)c2n1 [Compound 32, N^6,2'-O-Dimethyl-2-(1-hexyn-1-yl)-adenosine] |
| 6.92 | CNc1nc(Br)nc2c1ncn2[C@@H]1O[C@H](CO)[C@@H](O)[C@H]1OC [Compound 45, 2-Bromo-N^6,2'-O-dimethyladenosine] |
| 6.96 | CCCCCCCCO[C@@H]1[C@H](O)[C@@H](CO)O[C@H]1n1cnc2c(NC)ncnc21 [Compound 24, N^6 -Methyl-2'-O-n-octyladenosine] |
| 7.05 | CCCCCCc1nc(NC)c2ncn([C@@H]3O[C@H](CO)[C@@H](O)[C@H]3OC)c2n1 [Compound 30, N^6,2'-O-Dimethyl-2-hexyladenosine] |

tested on: ischemic edema of hind paw of mice; experiment: Suppressive action against ischemic edema; assay type: in vivo, ICR-strain male mice; settings: 10 mg/kg intravenous before ischemia; treated paw
Method: 4. Suppressive Action against Ischemic Edema
The right hind paw of ICR-strain male mice (11 weeks of age) were fastened with a rubber band to stop the blood stream for 20 minutes, and then the rubber band was removed to recover the blood stream. The tested drug was administered intravenously before the treatment. Each of the right and left hind paws were weighed and the suppressive action was measured according to the weight difference between the treated and untreated paws.

| SMILES | Paw Weight, Treated [mg] |
| --- | --- |
| Oc1ncnc2[nH]ncc12 [Allopurinol] | 283.2 ± 6.3 |

same assay, conditions: 10 mg/kg intravenous before ischemia; untreated paw

| SMILES | Paw Weight, Untreated [mg] |
| --- | --- |
| Oc1ncnc2[nH]ncc12 [Allopurinol] | 222.9 ± 6.9 |

same assay, conditions: 10 mg/kg intravenous; from weight difference between treated and untreated paws

| SMILES | Inhibition (of ischemic edema) [%] |
| --- | --- |
| Oc1ncnc2[nH]ncc12 [Allopurinol] | 36.4 |
